# Reference: ChEMBL document CHEMBL3044818, “Fungicide resistance status in French populations of the wheat eyespot fungi Oculimacula acuformis and Oculimacula yallundae” (Pest Manag Sci, 2013)
# Tests used:
# Oculimacula acuformis [1] = test: Fungicidal activity against Oculimacula acuformis assessed as inhibition of mycelial growth in presence of 5 g sodium succinate incubated at 19 degC in dark for 4 weeks; type: functional, organism-based; settings: 672 h
# Oculimacula acuformis [2] = test: Fungicidal activity against Oculimacula acuformis assessed as inhibition of mycelial growth in presence of 10 g glucose incubated at 19 degC in dark for 4 weeks; type: functional, organism-based; settings: 672 h
# Oculimacula yallundae [3] = test: Resistance index, ratio of EC50 for sterol 14alpha-demethylation inhibitor-resistant Oculimacula yallundae MDR to EC50 for sterol 14alpha-demethylation inhibitor-resistant Oculimacula yallundae TriR1 by mycelial growth inhibition assay; type: functional
# Oculimacula yallundae [4] = test: Resistance index, ratio of EC50 for sterol 14alpha-demethylation inhibitor-resistant Oculimacula yallundae MDR to EC50 for wild type Oculimacula yallundae TriS by germ tube elongation assay; type: functional
# Oculimacula yallundae [5] = test: Resistance index, ratio of EC50 for sterol 14alpha-demethylation inhibitor-resistant Oculimacula yallundae TriR1 to EC50 for wild type Oculimacula yallundae TriS by germ tube elongation assay; type: functional
# Oculimacula yallundae [6] = test: Resistance index, ratio of EC50 for sterol 14alpha-demethylation inhibitor-resistant Oculimacula yallundae TriR2 to EC50 for sterol 14alpha-demethylation inhibitor-resistant Oculimacula yallundae TriR1 by germ tube elongation assay; type: functional
# [7] = Selectivity index, ratio of EC50 for Oculimacula acuformis to EC50 for Oculimacula yallundae in presence of 5 g sodium succinate by mycelial growth inhibition assay; type: functional
# Oculimacula yallundae [8] = test: Fungicidal activity against Oculimacula yallundae assessed as inhibition of mycelial growth in presence of 5 g sodium succinate incubated at 19 degC in dark for 4 weeks; type: functional, organism-based; settings: 672 h
# Oculimacula yallundae [9] = test: Resistance index, ratio of EC50 for sterol 14alpha-demethylation inhibitor-resistant Oculimacula yallundae MDR to EC50 for sterol 14alpha-demethylation inhibitor-resistant Oculimacula yallundae TriR1 by germ tube elongation assay; type: functional
# Oculimacula yallundae [10] = test: Resistance index, ratio of EC50 for sterol 14alpha-demethylation inhibitor-resistant Oculimacula yallundae TriR2 to EC50 for sterol 14alpha-demethylation inhibitor-resistant Oculimacula yallundae TriR1 by mycelial growth inhibition assay; type: functional
# Oculimacula yallundae [11] = test: Fungicidal activity against Oculimacula yallundae assessed as inhibition of germ tube elongation incubated at 19 degC in dark for 48 hr; type: functional, organism-based
# Oculimacula yallundae [12] = test: Fungicidal activity against Oculimacula yallundae assessed as inhibition of mycelial growth in presence of 10 g glucose incubated at 19 degC in dark for 4 weeks; type: functional, organism-based; settings: 672 h
# Oculimacula acuformis [13] = test: Fungicidal activity against Oculimacula acuformis assessed as inhibition of germ tube elongation incubated at 19 degC in dark for 48 hr; type: functional, organism-based
# [14] = Selectivity index, ratio of EC50 for Oculimacula acuformis to EC50 for Oculimacula yallundae in presence of 10 g glucose by mycelial growth inhibition assay; type: functional
# Oculimacula yallundae [15] = test: Resistance index, ratio of EC50 for sterol 14alpha-demethylation inhibitor-resistant Oculimacula yallundae TriR1 to EC50 for wild type Oculimacula yallundae TriS by mycelial growth inhibition assay; type: functional
# Oculimacula yallundae [16] = test: Resistance index, ratio of EC50 for sterol 14alpha-demethylation inhibitor-resistant Oculimacula yallundae TriR2 to EC50 for wild type Oculimacula yallundae TriS by germ tube elongation assay; type: functional
# [17] = Selectivity index, ratio of EC50 for Oculimacula acuformis to EC50 for Oculimacula yallundae by germ tube elongation inhibition assay; type: functional
# Oculimacula yallundae [18] = test: Resistance index, ratio of EC50 for sterol 14alpha-demethylation inhibitor-resistant Oculimacula yallundae TriR2 to EC50 for wild type Oculimacula yallundae TriS by mycelial growth inhibition assay; type: functional
# Oculimacula yallundae [19] = test: Resistance index, ratio of EC50 for sterol 14alpha-demethylation inhibitor-resistant Oculimacula yallundae MDR to EC50 for wild type Oculimacula yallundae TriS by mycelial growth inhibition assay; type: functional
smiles,measurement,setting,value
O=C(Nc1ccccc1-c1ccc(Cl)cc1)c1cccnc1Cl [BOSCALID],EC50,Oculimacula acuformis [1],0.3 µg/mL
same,EC50,Oculimacula acuformis [2],0.3 µg/mL
same,Ratio EC50,Oculimacula yallundae [3],10
same,Ratio EC50,Oculimacula yallundae [4],5
same,Ratio EC50,Oculimacula yallundae [5],1.1
same,Ratio EC50,Oculimacula yallundae [6],1.2
same,Ratio EC50,[7],0.06
same,EC50,Oculimacula yallundae [8],5 µg/mL
same,Ratio EC50,Oculimacula yallundae [9],4.5
same,Ratio EC50,Oculimacula yallundae [10],1.3
same,EC50,Oculimacula yallundae [11],0.03 µg/mL
same,EC50,Oculimacula yallundae [12],0.4 µg/mL
same,EC50,Oculimacula acuformis [13],0.025 µg/mL
same,Ratio EC50,[14],0.08
same,Ratio EC50,Oculimacula yallundae [15],0.8
same,Ratio EC50,Oculimacula yallundae [16],1.3
same,Ratio EC50,[17],0.8
same,Ratio EC50,Oculimacula yallundae [18],1
same,Ratio EC50,Oculimacula yallundae [19],7.5
